Data from US20080125408A1, “PENEM PRODRUG” (Pfizer Inc, priority 2006, published 2008).
In brackets after ≈: the same amount, converted by molar mass.

Assays:
[1] = Human Intestinal Juice (HIJ) stability studies; type: in vitro ADME; conditions: pooled HIJ from 4 subjects, buffered pH 7.4, 37° C., substrate 1-300 μM
Method: In the HIJ experiments, HIJ from 4 individual subjects (1 mL each) was pooled with 1 mL of 600 mM potassium phosphate buffer pH 7.4. Aliquots of 300 μL×6 of the buffered human intestinal juice were incubated at 37° C. following fortification of substrate at concentrations of 300, 100, 30, 10, 3, and 1 μM. Two prodrug compounds could be run at the same time. Samples of 35 μL were taken at 0, 0.5, 1, 2, 10, and 20 minutes and quenched with 70 μL of 80/20 acetonitrile/100 mM ammonium acetate pH 4.5 containing an internal standard (ampicillin, 5 μg/mL). Samples were centrifuged at 3000 g for 10 minutes and the supernatants transferred to injection vials. First order degradation of the prodrug was monitored by LC/MS/MS as described below. The percentage of prodrug remaining versus time at each concentration was fitted to a first order decay function to determine the substrate depletion rate constant or kdep. A linear-log plot of kdep versus concentration could be fitted with the following equation where: [formula] […] In Michaelis-Menton terms, intrinsic clearance CLint represents the ratio of Vmax/Km when [S] is well below the Km. Substrate units for these studies were reported in μM and intrinsic clearance (CIint) in mL/min.

[2] = Liver S9 stability and conversion efficiency to sulopenem; type: in vitro ADME, human
Method: Oral bioavailability can be predicted variously by factors including one or more of (1) GI tract stability, (2) Caco-2 permeability, (3) efficiency of conversion to sulopenem, and (4) high solubility. Accordingly, the sulopenem prodrugs of the invention were evaluated, as detailed below, for stability in human intestinal juice (HIJ), efficiency of conversion to sulopenem in human liver homogenate, whole blood conversion and solubility as measured in phosphate buffer pH 5.0. Liver S9 was prepared fresh from liver chunks stored at −70° C. for each analysis completed. Approximately 5 g of frozen liver tissue was homogenized to uniformity in 15 mL of ice cold 100 mM potassium phosphate (pH 7.4) buffer. The homogenate was then centrifuged at 9000 g for 20 minutes at 5° C. to isolate the S9 supernatant fraction. Each incubation was run at a 1:10 dilution of the S9 supernatant in 100 mM potassium phosphate (pH 7.4) buffer. Reactions (1 mL) were initiated by the addition of substrate (50 μM final) at 37° C. Stability and conversion efficiency were assessed in 1 mL incubations with heparinized whole blood at 37° C. For both S9 homogenates and whole blood incubations, aliquots (75 μL) were obtained at 0, 0.5, 1, 2, 3, 5, 10, and 20 minutes and quenched in 150 μL of 80/20 acetonitrile/100 mM ammonium acetate pH 4.5 containing an internal standard (ampicillin, 5 μg/mL). Samples were centrifuged at 3000 g for 10 minutes and the supernatants transferred to injection vials. First order degradation of the prodrug was monitored by LC/MS/MS as described below. Conversion to sulopenem was expressed as a percentage of the molar equivalent (50 μM) in a fortified sample. The results of the S9 and whole blood stability and conversion studies are shown in Table 2, where single values represent an average of two duplicate determinations.

[3] = Whole blood conversion efficiency to sulopenem; type: in vitro ADME; conditions: heparinized whole blood, 37° C.
Method: Stability and conversion efficiency were assessed in 1 mL incubations with heparinized whole blood at 37° C. For both S9 homogenates and whole blood incubations, aliquots (75 μL) were obtained at 0, 0.5, 1, 2, 3, 5, 10, and 20 minutes and quenched in 150 μL of 80/20 acetonitrile/100 mM ammonium acetate pH 4.5 containing an internal standard (ampicillin, 5 μg/mL). Samples were centrifuged at 3000 g for 10 minutes and the supernatants transferred to injection vials. First order degradation of the prodrug was monitored by LC/MS/MS as described below. Conversion to sulopenem was expressed as a percentage of the molar equivalent (50 μM) in a fortified sample. The results of the S9 and whole blood stability and conversion studies are shown in Table 2, where single values represent an average of two duplicate determinations.

Caco-2 cells = assay: Caco-2 permeability studies (A→B assay)
[4] = Equilibrium solubility in phosphate buffer pH 5; conditions: equilibrium, 25 mM phosphate buffer (pH 5), ambient temperature, up to 48 hours

CCCCc1oc(=O)oc1COC(=O)C1=C(S[C@H]2CC[S@@+]([O-])C2)S[C@@H]2[C@@H]([C@@H](C)O)C(=O)N12 [Compound 3, (5-(3-methylpropyl)-2-oxo-1,3-dioxol-4-yl)methyl (5R,6S)-6-[(1R)-1-hydroxyethyl]-7-oxo-3-[[(1R,3S)-tetrahydro-1-oxido-3-thienyl]thio]-4-thia-1-azabicyclo[3.2.0]hept-2-ene-2-carboxylate]
HIJ CLint [1]: 0.16 mL/min
Km [1]: 41 µM
S9 Conv ([2]; conversion to sulopenem, % of molar equivalent (50 μM), liver S9 1:10, pH 7.4, 37° C.): 67%
S9 Half-life ([2]; prodrug degradation, liver S9 1:10, 50 μM, pH 7.4, 37° C.): 6.09 min
Whole Blood Conv [3]: 84%
Caco-2 Permeability (Caco-2 cells; Papp A→B, 100 μM prodrug, apical pH 6.5 / basolateral pH 7.4): 5.02 ×10⁻⁶ cm/s
increase in Caco-2 permeability compared to C1 (Caco-2 cells; relative to comparative compound C1): ~10 fold
solubility [4]: 809 µg/mL (≈ 1610 µM)
